From ChEMBL document CHEMBL4715878 (J Med Chem, 2020)

Assays:
MCF7 [1] = assay: Antiproliferative activity against human MCF7 cells assessed as reduction in cell viability incubated for 72 hrs by WST8 assay; format: functional, cell-based; settings: MCF7, 72 h
AU565 = assay: Antiproliferative activity against human AU565 cells assessed as reduction in cell viability incubated for 72 hrs by WST8 assay; format: functional, cell-based; settings: AU565, 72 h
BT-474 = assay: Antiproliferative activity against human BT474 cells assessed as reduction in cell viability incubated for 72 hrs by WST8 assay; format: functional, cell-based; settings: BT-474, 72 h
MDA-MB-231 = assay: Antiproliferative activity against human MDA-MB-231 cells assessed as reduction in cell viability incubated for 72 hrs by WST8 assay; format: functional, cell-based; settings: MDA-MB-231, 72 h
MCF7 [2] = assay: Potency index, ratio of lapatinib IC50 to test compound IC50 for antiproliferative activity against human MCF7 cells; format: functional
[3] = target: Platelet-derived growth factor receptor alpha (Homo sapiens, UniProt P16234); assay: Effect on human recombinant N-terminal GST-tagged PDGFRalpha (550 to end residues) expressed in baculovirus infected Sf9 insect cells in presence of substrate and [gamma-32ATP] at 10 uM incubated for 30 mins by scintillation counting based radiometry assay relative to control; settings: 0.5 h, read-out: Activity
[4] = target: Receptor tyrosine-protein kinase erbB-4 (Homo sapiens, UniProt Q15303); assay: Effect on human recombinant N-terminal GST-tagged HER4 (682 to 993) expressed in baculovirus infected Sf9 insect cells in presence of substrate and [gamma-32ATP] at 10 uM incubated for 30 mins by scintillation counting based radiometry assay relative to control; settings: 0.5 h, read-out: Activity
[5] = target: T1, Receptor tyrosine-protein kinase erbB-2 (Homo sapiens, UniProt P04626); assay: Inhibition of wild-type HER2 (unknown origin) at 0.5 nM in presence of substrate incubated for 30 mins by ADP-Glo assay relative to control
[6] = target: T1, Receptor tyrosine-protein kinase erbB-2; settings: Sf9, human, 0.5 h
[7] = target: T1, Receptor tyrosine-protein kinase erbB-2; assay: Inhibition of HER2 (unknown origin) in presence of substrate incubated for 30 mins by ADP-Glo assay
[8] = target: Epidermal growth factor receptor (Homo sapiens, UniProt P00533); settings: 0.5 h
Description: Effect on human EGFR in presence of substrate and [gamma-32ATP] at 10 uM incubated for 30 mins by scintillation counting based radiometry assay relative to control

in vitro [9] = settings: CD-1, mouse, liver microsomes
Description: Metabolic stability in CD-1 mouse liver microsomes assessed as parent compound remaining at 100 uM measured after 60 mins by LC-MS/MS analysis

in vitro [10] = settings: CD-1, mouse, microsomes
in vitro [11] = settings: CD-1, mouse, liver microsomes; remark: listed apart in the source
in vitro [12] = settings: CD-1, mouse, liver microsomes; remark: listed apart in the source
in vitro [13] = settings: CD-1, mouse, liver microsomes; remark: listed apart in the source
Description: Metabolic stability in CD-1 mouse liver microsomes assessed as parent compound remaining at 100 uM measured after 60 mins in presence of NADPH by LC-MS/MS analysis

[14] = Antiproliferative activity against human MDA-MB-231 cells assessed as lethality at 10 uM after 48 hrs by SRB assay relative to control; format: functional, MDA-MB-23
[15] = system: Panel NCI-60 (60 carcinoma cell lines); assay: Antiproliferative activity against human NCI60 cells assessed as mean cell growth at 10 uM after 48 hrs by SRB assay relative to control; format: functional
MDA-MB-468 [16] = assay: Antiproliferative activity against human MDA-MB-468 cells assessed as cell growth inhibition after 48 hrs by SRB assay; format: functional
MCF7 [17] = assay: Antiproliferative activity against human MCF7 cells assessed as lethality at 10 uM after 48 hrs by SRB assay relative to control; format: functional
[18] = Antiproliferative activity against human BC assessed as cell growth inhibition at 10 uM after 48 hrs by SRB assay relative to control; format: functional; settings: read-out: GI
[19] = Antiproliferative activity against human BC assessed as lethality at 10 uM after 48 hrs by SRB assay relative to control; format: functional
MDA-MB-468 [20] = assay: Antiproliferative activity against human MDA-MB-468 cells assessed as lethality at 10 uM after 48 hrs by SRB assay relative to control; format: functional
[21] = system: Panel NCI-60 (60 carcinoma cell lines); assay: Antiproliferative activity against human NCI60 cells assessed as lethality at 10 uM after 48 hrs by SRB assay relative to control; format: functional
MDA-MB-468 [22] = assay: Antiproliferative activity against human MDA-MB-468 cells assessed as cell growth inhibition at 10 uM after 48 hrs by SRB assay relative to control; format: functional; settings: read-out: GI

Chain of Platelet-derived growth factor receptor alpha (P16234 whole entry): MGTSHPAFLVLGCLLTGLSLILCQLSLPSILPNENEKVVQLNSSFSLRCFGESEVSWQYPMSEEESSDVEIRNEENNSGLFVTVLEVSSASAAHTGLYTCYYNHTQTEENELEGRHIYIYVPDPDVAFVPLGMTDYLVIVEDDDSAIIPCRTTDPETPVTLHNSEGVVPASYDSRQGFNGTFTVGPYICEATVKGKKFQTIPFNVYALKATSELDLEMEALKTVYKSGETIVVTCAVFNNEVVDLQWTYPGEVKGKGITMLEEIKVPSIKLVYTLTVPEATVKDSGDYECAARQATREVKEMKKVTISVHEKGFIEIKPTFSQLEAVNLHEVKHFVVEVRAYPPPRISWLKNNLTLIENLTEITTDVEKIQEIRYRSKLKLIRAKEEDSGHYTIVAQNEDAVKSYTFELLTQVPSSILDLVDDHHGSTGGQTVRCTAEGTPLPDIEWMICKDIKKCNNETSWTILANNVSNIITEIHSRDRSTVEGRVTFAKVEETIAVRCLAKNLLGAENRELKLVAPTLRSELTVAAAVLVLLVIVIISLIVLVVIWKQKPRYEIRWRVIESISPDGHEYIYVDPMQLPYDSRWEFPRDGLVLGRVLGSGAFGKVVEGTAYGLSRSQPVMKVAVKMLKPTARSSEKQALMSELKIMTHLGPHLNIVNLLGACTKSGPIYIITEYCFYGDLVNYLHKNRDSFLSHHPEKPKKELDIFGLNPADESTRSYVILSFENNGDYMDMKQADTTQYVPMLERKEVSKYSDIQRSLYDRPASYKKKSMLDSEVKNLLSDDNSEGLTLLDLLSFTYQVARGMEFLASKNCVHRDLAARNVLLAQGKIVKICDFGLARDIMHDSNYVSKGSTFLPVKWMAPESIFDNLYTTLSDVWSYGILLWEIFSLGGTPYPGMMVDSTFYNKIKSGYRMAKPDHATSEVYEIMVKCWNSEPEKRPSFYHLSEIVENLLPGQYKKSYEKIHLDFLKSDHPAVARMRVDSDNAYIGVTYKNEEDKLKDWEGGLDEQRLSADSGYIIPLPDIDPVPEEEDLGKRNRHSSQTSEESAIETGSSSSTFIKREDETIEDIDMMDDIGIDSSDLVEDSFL
T1 sequence (P04626 whole entry): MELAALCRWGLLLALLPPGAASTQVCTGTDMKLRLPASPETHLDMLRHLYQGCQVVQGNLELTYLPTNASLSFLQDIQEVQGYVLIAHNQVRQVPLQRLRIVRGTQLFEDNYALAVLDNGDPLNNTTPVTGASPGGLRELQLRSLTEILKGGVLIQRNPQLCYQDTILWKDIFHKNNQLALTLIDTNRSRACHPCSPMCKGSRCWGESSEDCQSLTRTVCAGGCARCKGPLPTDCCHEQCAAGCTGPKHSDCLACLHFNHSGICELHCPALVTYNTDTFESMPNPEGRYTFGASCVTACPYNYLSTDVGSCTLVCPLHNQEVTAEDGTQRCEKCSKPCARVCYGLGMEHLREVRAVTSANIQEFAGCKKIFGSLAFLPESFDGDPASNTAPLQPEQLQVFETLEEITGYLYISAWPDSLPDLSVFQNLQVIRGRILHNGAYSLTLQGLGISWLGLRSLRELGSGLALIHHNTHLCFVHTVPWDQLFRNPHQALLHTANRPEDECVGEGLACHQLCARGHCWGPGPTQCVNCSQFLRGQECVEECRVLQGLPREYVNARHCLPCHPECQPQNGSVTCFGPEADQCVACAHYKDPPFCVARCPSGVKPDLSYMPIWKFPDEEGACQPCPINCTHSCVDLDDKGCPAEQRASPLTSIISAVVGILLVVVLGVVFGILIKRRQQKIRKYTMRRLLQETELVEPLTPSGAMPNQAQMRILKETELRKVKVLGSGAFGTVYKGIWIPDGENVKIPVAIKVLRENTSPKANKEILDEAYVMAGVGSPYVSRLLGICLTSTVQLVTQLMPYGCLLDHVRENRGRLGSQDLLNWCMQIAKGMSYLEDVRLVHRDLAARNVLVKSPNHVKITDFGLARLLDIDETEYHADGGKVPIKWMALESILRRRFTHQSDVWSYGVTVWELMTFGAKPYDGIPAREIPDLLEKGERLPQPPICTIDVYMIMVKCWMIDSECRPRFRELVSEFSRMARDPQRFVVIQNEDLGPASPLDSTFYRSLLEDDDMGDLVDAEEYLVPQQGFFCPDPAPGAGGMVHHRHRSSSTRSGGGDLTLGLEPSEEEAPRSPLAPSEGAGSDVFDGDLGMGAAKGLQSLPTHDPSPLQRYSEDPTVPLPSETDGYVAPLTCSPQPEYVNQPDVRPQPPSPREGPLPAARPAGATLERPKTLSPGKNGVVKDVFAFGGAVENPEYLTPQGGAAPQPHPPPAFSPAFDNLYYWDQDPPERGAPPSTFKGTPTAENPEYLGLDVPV
Chain of Epidermal growth factor receptor (P00533 whole entry): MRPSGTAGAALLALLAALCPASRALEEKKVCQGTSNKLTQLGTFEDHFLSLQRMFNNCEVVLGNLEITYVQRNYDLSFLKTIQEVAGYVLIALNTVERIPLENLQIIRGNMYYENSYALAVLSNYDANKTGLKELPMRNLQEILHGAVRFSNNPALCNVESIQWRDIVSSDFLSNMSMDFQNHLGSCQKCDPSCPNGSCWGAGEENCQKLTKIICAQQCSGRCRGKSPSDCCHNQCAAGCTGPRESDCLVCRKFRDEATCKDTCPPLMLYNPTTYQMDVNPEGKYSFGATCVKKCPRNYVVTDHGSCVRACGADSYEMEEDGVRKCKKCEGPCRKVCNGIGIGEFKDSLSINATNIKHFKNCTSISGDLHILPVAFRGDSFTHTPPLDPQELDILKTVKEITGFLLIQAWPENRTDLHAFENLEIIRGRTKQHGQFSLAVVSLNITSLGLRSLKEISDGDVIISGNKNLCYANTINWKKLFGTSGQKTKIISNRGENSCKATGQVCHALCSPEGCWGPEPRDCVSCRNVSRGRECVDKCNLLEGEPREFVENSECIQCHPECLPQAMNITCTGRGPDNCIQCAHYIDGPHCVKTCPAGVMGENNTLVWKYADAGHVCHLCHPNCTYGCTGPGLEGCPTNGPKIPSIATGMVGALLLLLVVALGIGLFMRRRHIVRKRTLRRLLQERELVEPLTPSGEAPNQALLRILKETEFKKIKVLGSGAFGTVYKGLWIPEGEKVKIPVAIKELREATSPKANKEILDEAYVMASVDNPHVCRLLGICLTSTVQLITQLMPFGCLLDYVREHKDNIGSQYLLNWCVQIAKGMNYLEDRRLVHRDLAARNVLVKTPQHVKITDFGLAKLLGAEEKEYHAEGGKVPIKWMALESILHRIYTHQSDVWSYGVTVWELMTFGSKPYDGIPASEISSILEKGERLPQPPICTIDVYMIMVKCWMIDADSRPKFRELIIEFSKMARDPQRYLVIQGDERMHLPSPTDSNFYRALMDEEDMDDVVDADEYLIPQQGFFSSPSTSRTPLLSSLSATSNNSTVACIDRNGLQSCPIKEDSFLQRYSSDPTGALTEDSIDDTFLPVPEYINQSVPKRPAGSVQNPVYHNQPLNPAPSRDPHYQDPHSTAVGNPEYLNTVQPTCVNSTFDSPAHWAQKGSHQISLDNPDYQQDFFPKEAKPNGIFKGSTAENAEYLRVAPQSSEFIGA
Chain of Receptor tyrosine-protein kinase erbB-4 (Q15303 whole entry): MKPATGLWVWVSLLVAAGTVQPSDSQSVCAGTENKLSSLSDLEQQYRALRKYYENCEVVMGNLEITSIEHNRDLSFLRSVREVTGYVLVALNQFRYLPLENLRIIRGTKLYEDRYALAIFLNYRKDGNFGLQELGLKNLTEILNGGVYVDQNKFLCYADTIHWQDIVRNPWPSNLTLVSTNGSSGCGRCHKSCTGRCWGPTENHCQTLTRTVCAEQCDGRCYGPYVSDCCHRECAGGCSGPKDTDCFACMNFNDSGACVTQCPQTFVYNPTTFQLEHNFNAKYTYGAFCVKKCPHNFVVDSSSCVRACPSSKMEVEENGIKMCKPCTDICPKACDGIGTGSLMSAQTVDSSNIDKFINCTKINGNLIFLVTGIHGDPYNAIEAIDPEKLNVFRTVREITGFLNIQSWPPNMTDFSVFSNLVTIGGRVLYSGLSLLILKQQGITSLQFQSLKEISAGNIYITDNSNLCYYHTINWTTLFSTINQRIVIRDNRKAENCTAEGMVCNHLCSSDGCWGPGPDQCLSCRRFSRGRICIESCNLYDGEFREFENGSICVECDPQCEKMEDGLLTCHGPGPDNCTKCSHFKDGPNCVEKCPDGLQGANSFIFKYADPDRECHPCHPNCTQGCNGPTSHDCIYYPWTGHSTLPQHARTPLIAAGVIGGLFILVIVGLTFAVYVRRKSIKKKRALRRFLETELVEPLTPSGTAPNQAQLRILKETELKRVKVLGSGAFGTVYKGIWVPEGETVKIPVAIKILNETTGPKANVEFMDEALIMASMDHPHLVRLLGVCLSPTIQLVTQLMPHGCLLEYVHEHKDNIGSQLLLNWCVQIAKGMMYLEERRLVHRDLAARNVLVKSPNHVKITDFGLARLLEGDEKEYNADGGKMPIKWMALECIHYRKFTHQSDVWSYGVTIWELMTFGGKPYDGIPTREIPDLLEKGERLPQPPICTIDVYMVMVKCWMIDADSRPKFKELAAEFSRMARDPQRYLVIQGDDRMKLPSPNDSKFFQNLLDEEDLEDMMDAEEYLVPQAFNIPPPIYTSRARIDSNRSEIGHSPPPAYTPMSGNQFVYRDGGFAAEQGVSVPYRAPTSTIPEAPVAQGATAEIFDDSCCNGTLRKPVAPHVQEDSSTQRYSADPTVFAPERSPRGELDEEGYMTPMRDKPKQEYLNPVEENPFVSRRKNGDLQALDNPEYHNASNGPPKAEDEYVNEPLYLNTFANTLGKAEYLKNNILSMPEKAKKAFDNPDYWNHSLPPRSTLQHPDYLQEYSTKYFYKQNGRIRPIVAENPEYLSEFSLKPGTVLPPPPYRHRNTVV

Row | SMILES | IC50 (MCF7 [1]) [nM] | IC50 (AU565) [nM] | IC50 (BT-474) [nM] | IC50 (MDA-MB-231) [nM] | activity at 10 µM [3] [%] | activity at 10 µM [4] [%] | also measured
1 | CN1CCN(Cc2ccc(C(=O)Nc3ccc4ncnc(Nc5ccc(Oc6cccc(F)c6)c(Cl)c5)c4c3)cc2)CC1 | 1620 | 767 | 506 | 1900 |  |  | Ratio IC50 (MCF7 [2]): <=20
2 | CCN(CC)CC(=O)Nc1ccc2ncnc(Nc3ccc(Oc4cccc(C)c4)c(Cl)c3)c2c1 | 2680 | 219 | 265 | 2830 |  |  | 
3 | CNC(=O)c1cc(Oc2ccc(NC(=O)Nc3ccc(Cl)c(C(F)(F)F)c3)cc2)ccn1 [SORAFENIB] |  |  |  |  | -55 | -60 | 
4 | O=C(CNCCO)Nc1ccc2ncnc(Nc3ccc(OCc4cccc(F)c4)c(Cl)c3)c2c1 | 8620 | 220 | 240 | 8780 | 54 | -98 | inhibition [5]: 3%; activity at 10 µM [6]: -93%; IC50 [7]: 10.4 nM; activity at 10 µM [8]: -78%
5 | O=C(O)Cc1ccccc1Nc1c(Cl)cccc1Cl [DICLOFENAC] |  |  |  |  |  |  | remaining at 1 h, 100 µM (in vitro [9]): 102%; microsomal CLint at 1 h, 100 µM (in vitro [10]): 23.1 µL/min/mg; CLint scaled at 1 h, 100 µM (in vitro [11]): 91.5 mL/min/kg; half-life at 1 h, 100 µM (in vitro [12]): 1 h; remaining at 1 h, 100 µM (in vitro [13]): 50.2%
6 | O=C(CN1CCOCC1)Nc1ccc2ncnc(Nc3ccc(OCc4cccc(F)c4)c(Cl)c3)c2c1 | 7970 | 130 | 117 | 11600 | 55 | -97 | activity at 10 µM [6]: -92%; activity at 10 µM [8]: -81%
7 | CCN(CC)CC(=O)Nc1ccc2ncnc(Nc3ccc(Oc4cccc(F)c4)c(Cl)c3)c2c1 | 5680 | 684 | 532 | 3920 |  |  | 
8 | CCN(CC)CCCOc1ccc2ncnc(Nc3ccc(Oc4cccc(C(F)(F)F)c4)c(Cl)c3)c2c1 | 1600 | 289 | 213 | 1370 |  |  | Activity [14]: 11.7%; Activity [15]: 11.85%; GI50 (MDA-MB-468 [16]): 900 nM; Activity (MCF7 [17]): 11.7%; inhibition of growth at 10 µM [18]: ≤ 78.7%; Activity [19]: <=78.7%; Activity (MDA-MB-468 [20]): 11.7%; Ratio IC50 (MCF7 [2]): <=20; Activity [21]: 1.3%; inhibition of growth at 10 µM (MDA-MB-468 [22]): 18.8%
9 | O=C(Nc1ccc2ncnc(Nc3ccc(Oc4cccc(F)c4)c(Cl)c3)c2c1)c1ccc(CN2CCOCC2)cc1 | 6220 | 923 | 540 | 11500 |  |  | 
10 | Fc1cccc(Oc2ccc(Nc3ncnc4ccc(OCCCN5CCOCC5)cc34)cc2Cl)c1 | 8330 | 311 | 283 | 10200 |  |  | 
11 | Cc1cccc(Oc2ccc(Nc3ncnc4ccc(NC(=O)CN5CCOCC5)cc34)cc2Cl)c1 | 9640 | 152 | 91 | 13800 |  |  | 
12 | CN1CCN(CCCOc2ccc3ncnc(Nc4ccc(Oc5cccc(F)c5)c(Cl)c4)c3c2)CC1 | 913 | 419 | 221 | 1700 |  |  | Activity [15]: 11.85%; inhibition of growth at 10 µM [18]: ≤ 78.7%; Activity [19]: <=78.7%; Ratio IC50 (MCF7 [2]): <=20; Activity [21]: 1.3%; inhibition of growth at 10 µM (MDA-MB-468 [22]): 18.8%
13 | CN1CCN(CC(=O)Nc2ccc3ncnc(Nc4ccc(Oc5cccc(F)c5)c(Cl)c4)c3c2)CC1 | 5990 | 491 | 221 | 5450 |  |  | 
14 | CN1CCN(CCCOc2ccc3ncnc(Nc4ccc(Oc5cccc(C(F)(F)F)c5)c(Cl)c4)c3c2)CC1 | 1680 | 447 | 200 | 1060 | 115 | -99 | Activity [14]: 18%; activity at 10 µM [6]: -92%; Activity [15]: 11.85%; Activity (MCF7 [17]): 18%; inhibition of growth at 10 µM [18]: ≤ 78.7%; Activity [19]: <=78.7%; Activity (MDA-MB-468 [20]): 18%; Ratio IC50 (MCF7 [2]): <=20; activity at 10 µM [8]: -78%; Activity [21]: 1.3%; inhibition of growth at 10 µM (MDA-MB-468 [22]): 18.8%
15 | Fc1cccc(COc2ccc(Nc3ncnc4ccc(OCCCN5CCOCC5)cc34)cc2Cl)c1 | 6190 | 149 | 81 | 7320 |  |  | 
16 | Cc1cccc(Oc2ccc(Nc3ncnc4ccc(NC(=O)CNCCO)cc34)cc2Cl)c1 | 10800 | 304 | 132 | 7830 | 86 | -99 | activity at 10 µM [6]: -93%; activity at 10 µM [8]: -78%
17 | CN(C)CC(=O)Nc1ccc2ncnc(Nc3ccc(Oc4cccc(C(F)(F)F)c4)c(Cl)c3)c2c1 | 5100 | 408 | 478 | 2660 |  |  | 
18 | C[C@]12CC[C@H]3[C@@H](CCC4=CC(=O)CC[C@@]43C)[C@@H]1CC[C@@H]2O [TESTOSTERONE] |  |  |  |  |  |  | microsomal CLint at 1 h, 100 µM (in vitro [10]): 279 µL/min/mg; CLint scaled at 1 h, 100 µM (in vitro [11]): 1110 mL/min/kg
19 | FC(F)(F)c1cccc(Oc2ccc(Nc3ncnc4ccc(OCCCN5CCOCC5)cc34)cc2Cl)c1 | 5530 | 348 | 246 | 6730 |  |  | GI50 (MDA-MB-468 [16]): 500 nM
20 | Cc1cccc(Oc2ccc(Nc3ncnc4ccc(NC(=O)CN(C)C)cc34)cc2Cl)c1 | 2700 | 154 | 134 | 4510 |  |  | GI50 (MDA-MB-468 [16]): 200 nM
21 | CN(C)Cc1ccc(C(=O)Nc2ccc3ncnc(Nc4ccc(Oc5cccc(F)c5)c(Cl)c4)c3c2)cc1 | 2640 | 225 | 339 | 5000 |  |  | Activity [14]: 11.7%; Activity [15]: 11.85%; Activity (MCF7 [17]): 11.7%; inhibition of growth at 10 µM [18]: ≤ 78.7%; Activity [19]: <=78.7%; Activity (MDA-MB-468 [20]): 11.7%; Activity [21]: 1.3%; inhibition of growth at 10 µM (MDA-MB-468 [22]): 18.8%
22 | OCCNCCCOc1ccc2ncnc(Nc3ccc(Oc4cccc(C(F)(F)F)c4)c(Cl)c3)c2c1 | 1510 | 456 | 262 | 1950 |  |  | Activity [14]: 18%; Activity [15]: 11.85%; GI50 (MDA-MB-468 [16]): 600 nM; Activity (MCF7 [17]): 18%; inhibition of growth at 10 µM [18]: ≤ 78.7%; Activity [19]: <=78.7%; Activity (MDA-MB-468 [20]): 18%; Ratio IC50 (MCF7 [2]): <=20; Activity [21]: 1.3%; inhibition of growth at 10 µM (MDA-MB-468 [22]): 18.8%
23 | CN1CCN(CC(=O)Nc2ccc3ncnc(Nc4ccc(Oc5cccc(C(F)(F)F)c5)c(Cl)c4)c3c2)CC1 | 2070 | 441 | 369 | 2560 |  |  | Activity [14]: 11.7%; Activity [15]: 11.85%; Activity (MCF7 [17]): 11.7%; inhibition of growth at 10 µM [18]: ≤ 78.7%; Activity [19]: <=78.7%; Activity (MDA-MB-468 [20]): 11.7%; Activity [21]: 1.3%; inhibition of growth at 10 µM (MDA-MB-468 [22]): 18.8%
24 | CS(=O)(=O)CCNCc1ccc(-c2ccc3ncnc(Nc4ccc(OCc5cccc(F)c5)c(Cl)c4)c3c2)o1 [LAPATINIB] | 6300 | 64 | 64 | 10400 | 56 | -99 | activity at 10 µM [6]: -52%
25 | O=C(CN1CCOCC1)Nc1ccc2ncnc(Nc3ccc(Oc4cccc(F)c4)c(Cl)c3)c2c1 | 18100 | 545 | 373 | 30200 | 18 | -97 | activity at 10 µM [6]: -92%; activity at 10 µM [8]: -67%
26 | O=C(CN1CCOCC1)Nc1ccc2ncnc(Nc3ccc(Oc4cccc(C(F)(F)F)c4)c(Cl)c3)c2c1 | 11200 | 364 | 298 | 8850 | 82 | -94 | activity at 10 µM [6]: -91%; activity at 10 µM [8]: -71%
